Test results as given in patent US20260294884A1 (Insilico Medicine IP Limited, priority 2023, published 2026).

Key:
KAT6A = biological target: T1, KAT6A (Homo sapiens, UniProt Q92794); test: KAT6A biochemical assay (radiometric [3H]-acetyl CoA, biotinylated H4 (1-30) peptide); conditions: 60 min reaction, room temperature
T1 construct: purchased Active Motif
Method: Inhibition of KAT6A enzymatic activity by test compounds was determined using a radiometric 384-well format assay. A 10-point serial dilution of the test compounds were conducted in DMSO and then a volume of 200 nL was transferred into 384-well assay plate by Echo (Labcyte). 10 μL of 2×enzyme solution (5 nM KAT6A (Active Motif) in assay buffer (50 mM Tris —HCl pH 8.0, 50 mM KCl, 0.1 mM EDTA, 5% glycerol, 1 mM DTT)) was dispensed into assay plate except for low control wells, in which 10 μL of assay buffer was transferred. The plate was incubated at room temperature for 15 min before addition of 10 μL of 2×[^3H]-acetyl coenzyme A (Ac-COA) and substrate peptide mix solution (500 nM (KAT6A) [^3H]-Ac-COA (PerkinElmer) and 800 nM (KAT6A) biotinylated H4 (1-30) peptide (GL Biochem) in assay buffer) to each well to start reaction. The plate was incubated at room temperature for 60 min (KAT6A), and then the reaction was stopped by adding 10 μL of stop solution (cold Ac-COA (Cayman) in 1×assay buffer). […] The plate was read on Microbeta and the inhibition percentage of each compound treated well was calculated based on the equation inh %=(Max-sample)/(Max-Min)*100 where Max is signal from high control wells with enzyme, and Min is signal from low control wells with assay buffer only. […]

[1] = Kinetic solubility in 50 mM phosphate buffer (pH 7.4); assay type: physicochemical; conditions: versus compound 47
Method: 10 μL of 10 mM in DMSO of test and control compounds was added into lower chambers of whatman miniuniprep vials, respectively. 490 μL of 50 mM PB (pH 7.4) was added into lower chambers of the whatman miniuniprep vials, respectively. The solubility samples were vortexted for at least 2 minutes. The miniuniprep vials were shaken on a shaker for 24 hours at room temperature at the speed of 800 rpm and then centrifuged for 20 minutes (eg. 4000 rpm). The miniunipreps were compressed to prepare the filtrates for injection into HPLC system to calculate the concentration with standard curve.

Caco-2 cells = test: Permeability, Caco-2 assay; assay type: in vitro ADME
Method: Permeability of test compounds was determined in Caco-2 Assay. Caco-2 cells purchased from ATCC were seeded onto […] membranes (PET) in 96-well Corning Insert plates at 1×10^5 cells/cm^2, and refreshed medium every 4~5 days until to the 21st to 28th day for confluent cell monolayer formation. The transport buffer in the study was HBSS with 10.0 mM HEPES at pH 7.40±0.05. Test compound was tested at […] bi-directionally in duplicate. Digoxin was tested at 10.0 μM bi-directionally in duplicate, while nadolol and metoprolol were tested at 2.00 μM in A to B direction in duplicate. Final DMSO concentration was adjusted to less than 1%. The plate was incubated for 2 hours in CO2 incubator at 37±1° C., with 5% CO2 at saturated humidity without shaking. And all samples after mixed with acetonitrile containing internal standard were centrifuged at 3200×g for 10 min. For nadolol and metoprolol, 200 μL supernatant solution was diluted with 600 μL ultra-pure water for LC-MS/MS analysis. For digoxin and test compounds, 200 μL supernatant solution was diluted with 200 μL ultra-pure water for LC-MS/MS analysis. Concentrations of test and control compounds in starting solution, donor solution, and receiver solution were quantified by LC-MS/MS methodologies, using peak area ratio of analyte/internal standard. After transport assay, lucifer yellow rejection assay was applied to determine the Caco-2 cell monolayer integrity.

T1 sequence (Q92794 whole entry): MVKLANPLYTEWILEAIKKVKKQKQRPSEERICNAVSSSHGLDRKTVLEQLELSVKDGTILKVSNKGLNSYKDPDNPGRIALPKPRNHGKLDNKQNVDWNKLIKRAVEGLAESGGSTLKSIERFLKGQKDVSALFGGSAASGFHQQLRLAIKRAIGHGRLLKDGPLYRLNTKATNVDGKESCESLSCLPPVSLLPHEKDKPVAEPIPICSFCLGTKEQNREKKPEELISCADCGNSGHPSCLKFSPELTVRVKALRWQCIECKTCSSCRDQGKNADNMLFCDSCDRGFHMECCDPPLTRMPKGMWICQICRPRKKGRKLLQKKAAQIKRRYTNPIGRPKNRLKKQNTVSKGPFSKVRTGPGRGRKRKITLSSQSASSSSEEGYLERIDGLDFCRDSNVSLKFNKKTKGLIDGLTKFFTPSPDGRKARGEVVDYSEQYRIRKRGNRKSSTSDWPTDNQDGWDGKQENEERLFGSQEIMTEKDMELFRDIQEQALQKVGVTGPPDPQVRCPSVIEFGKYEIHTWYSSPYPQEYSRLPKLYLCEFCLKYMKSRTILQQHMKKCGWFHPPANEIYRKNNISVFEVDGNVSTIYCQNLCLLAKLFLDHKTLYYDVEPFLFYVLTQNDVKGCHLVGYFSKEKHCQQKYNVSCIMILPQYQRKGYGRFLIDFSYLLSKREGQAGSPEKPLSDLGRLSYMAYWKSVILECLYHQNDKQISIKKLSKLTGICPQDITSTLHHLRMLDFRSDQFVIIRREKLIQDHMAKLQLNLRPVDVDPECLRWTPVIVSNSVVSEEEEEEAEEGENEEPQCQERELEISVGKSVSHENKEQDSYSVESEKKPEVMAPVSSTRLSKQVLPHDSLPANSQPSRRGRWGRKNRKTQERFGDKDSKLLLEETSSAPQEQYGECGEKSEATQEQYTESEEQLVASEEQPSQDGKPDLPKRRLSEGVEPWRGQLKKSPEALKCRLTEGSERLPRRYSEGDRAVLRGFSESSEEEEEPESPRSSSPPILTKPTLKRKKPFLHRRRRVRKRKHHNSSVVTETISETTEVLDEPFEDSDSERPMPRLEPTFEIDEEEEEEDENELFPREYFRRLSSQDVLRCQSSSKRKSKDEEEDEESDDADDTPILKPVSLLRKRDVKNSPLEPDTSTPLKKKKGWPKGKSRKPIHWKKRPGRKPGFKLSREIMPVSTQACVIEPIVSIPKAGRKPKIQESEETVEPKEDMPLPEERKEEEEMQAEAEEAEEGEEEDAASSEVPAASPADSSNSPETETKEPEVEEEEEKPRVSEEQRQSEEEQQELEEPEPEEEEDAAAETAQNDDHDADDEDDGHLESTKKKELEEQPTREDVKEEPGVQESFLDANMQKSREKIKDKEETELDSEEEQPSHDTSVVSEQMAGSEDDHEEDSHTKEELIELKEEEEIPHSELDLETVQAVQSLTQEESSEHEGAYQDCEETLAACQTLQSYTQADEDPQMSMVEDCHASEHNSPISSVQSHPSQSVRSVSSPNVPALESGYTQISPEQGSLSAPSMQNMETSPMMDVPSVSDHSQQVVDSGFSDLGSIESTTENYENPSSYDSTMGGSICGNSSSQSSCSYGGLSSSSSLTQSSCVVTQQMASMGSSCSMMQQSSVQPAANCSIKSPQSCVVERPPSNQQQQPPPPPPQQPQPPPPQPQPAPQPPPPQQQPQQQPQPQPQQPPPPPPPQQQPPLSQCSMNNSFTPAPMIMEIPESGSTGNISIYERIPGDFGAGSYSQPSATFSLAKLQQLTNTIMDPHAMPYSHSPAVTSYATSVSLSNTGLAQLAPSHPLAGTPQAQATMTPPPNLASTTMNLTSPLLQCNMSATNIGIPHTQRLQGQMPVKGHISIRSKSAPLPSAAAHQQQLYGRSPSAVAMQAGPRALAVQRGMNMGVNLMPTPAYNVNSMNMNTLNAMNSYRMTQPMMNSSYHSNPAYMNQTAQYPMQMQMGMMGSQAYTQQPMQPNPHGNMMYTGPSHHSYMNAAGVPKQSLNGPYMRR

Row | kinetic solubility, comparison with otherwise identical compound having X as carbon [1] | Mean Papp A to B (Caco-2 cells; Caco-2, pH 7.40, 2 hours, 37 °C, A to B) | permeability, comparison with corresponding compound having X as carbon (Caco-2 cells; versus compound 47) | SMILES | IC50 (KAT6A) [nM]
1 | – | – | – | COc1ccccc1S(=O)(=O)Nc1noc2cc(Oc3ccccn3)cc(OC(F)F)c12 [Compound 27, N-(4-(difluoromethoxy)-6-(pyridin-2-yloxy)benzo[d]isoxazol-3-yl)-2-methoxybenzenesulfonamide] | 100 to 1000
2 | – | – | – | COc1cccc(OC)c1S(=O)(=O)Nc1noc2cc(Oc3cccnn3)cc(OC(F)F)c12 [Compound 29, N-(4-(difluoromethoxy)-6-(pyridazin-3-yloxy)benzo[d]isoxazol-3-yl)-2,6-dimethoxybenzenesulfonamide] | 100 to 1000
3 | improved kinetic solubility | 8.59 10^-6 cm/s | improved permeability | COc1cccc(OC)c1S(=O)(=O)Nc1noc2cc(Oc3nccs3)c3c(c12)OCCC3 [Compound 35, 2,6-dimethoxy-N-(5-(thiazol-2-yloxy)-3,4-dihydro-2H-chromeno[8,7-d]isoxazol-9-yl)benzenesulfonamide] | –
